For this assay, the target named is FtsZ (Escherichia coli, UniProt P0A9A6). Kind of assay: STD NMR and STD NMR competition with GTPγS. It counts as biochemical.

For orientation: IC50 means the concentration that inhibits the measured activity by half. A lower IC50 goes with greater potency in that assay.

SMILES strings stand for the structures. Converted amounts (≈) assume the structure as drawn.

Sequence of FtsZ (P0A9A6 whole entry): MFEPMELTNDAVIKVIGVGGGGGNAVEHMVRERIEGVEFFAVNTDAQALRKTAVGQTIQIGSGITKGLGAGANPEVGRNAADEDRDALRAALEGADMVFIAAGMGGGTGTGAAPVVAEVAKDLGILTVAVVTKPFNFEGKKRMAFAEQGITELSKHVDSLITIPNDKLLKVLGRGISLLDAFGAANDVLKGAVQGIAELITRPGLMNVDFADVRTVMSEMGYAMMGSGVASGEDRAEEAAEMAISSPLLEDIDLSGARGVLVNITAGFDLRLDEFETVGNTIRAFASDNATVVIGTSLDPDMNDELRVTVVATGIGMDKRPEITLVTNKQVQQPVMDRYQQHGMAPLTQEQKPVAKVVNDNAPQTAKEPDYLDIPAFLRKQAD

Regarding `Oc1cc(O)c2c(c1)C/C(Cl)=C\Cc1cc(c(Cl)cc1O)Oc1c(O)cc(cc1O)C/C(Cl)=C\Cc1cc(c(Cl)cc1O)O2` [compound 1, chrysophaentin A], the concentration for half-maximal inhibition (IC50) was found to be 6.7 ± 1.7 µg/mL (≈ 9.88 µM).
